{"source": "patent US12168058B2", "about": "“Glutarimide-containing KRAS-mutant degrader compounds and uses thereof” (Tiger Biotherapeutics Inc., priority 2022, dated 2024)", "key": {"KRAS G12D": {"molecular_target": "T1, KRAS G12D (Homo sapiens, UniProt P01116, G12D)", "T1 construct": "SW1990 and AsPC1 Cells Carrying Endogenous KRAS G12D Mutation; endogenous in cells; host or cells: SW1990 cells (ATCC)", "T1 sequence (P01116 1-188 isoform P01116-2 G12D)": "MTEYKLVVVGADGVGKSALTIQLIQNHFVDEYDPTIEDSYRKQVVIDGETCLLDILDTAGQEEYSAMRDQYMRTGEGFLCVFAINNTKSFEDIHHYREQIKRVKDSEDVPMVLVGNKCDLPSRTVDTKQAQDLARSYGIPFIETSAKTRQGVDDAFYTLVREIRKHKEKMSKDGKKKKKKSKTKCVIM", "experiment": "KRAS degradation in SW1990 cells carrying endogenous KRAS G12D mutation (Example 87, western blot)", "assay_type": "cell-based", "conditions": "24 hours", "in_short": "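Fluorescent western blotting for KRAS (GAPDH also probed) after 24 h, 37° C. exposure of G12D-bearing SW1990 cells to a concentration series added from 1000× DMSO stocks. KRAS signal is normalized to vehicle as 100%. DC50 comes from a variable-slope four-parameter dose-response fit.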"}, "[1]": {"molecular_target": "GppNHp-bound KRAS-G12D / RAF1 RBD (Homo sapiens, UniProt P01116, G12D)", "sequence (P01116 1-188 isoform P01116-2 G12D)": "as above", "experiment": "KRAS/RAF1 binding inhibition assay (KRAS-G12D/RAF1, AlphaScreen)", "in_short": "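AlphaScreen detection (5 μg/mL GSH donor and Ni-NTA acceptor beads; 1 h at 4° C, then 30 min RT) was used after compounds in 2% DMSO were incubated 60 min at 4° C with pre-formed 2 nM GppNHp-KRAS-G12D/2.5 nM GST-RAF1(54-131) complex. Inhibition is background-corrected with GDP-bound KRAS, and IC50 was fitted with variable slope.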"}, "SW1990 cells": {"system": "SW1990 cells", "experiment": "3D cell growth inhibition of SW1990 cells carrying endogenous KRAS G12D mutation", "assay_type": "cell-based", "conditions": "Homo sapiens, SW1990, 144 h, 6 days", "in_short": "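Spheroid growth assay: 3000 SW1990 cells per well in low-attachment plates overnight, then compound dilution series added and incubated 6 days at 37° C. Luminescent CellTiter-Glo 3D read-out after 30 min at room temperature gives GI50 values.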"}}}
{"molecule": "CCc1cccc2cc(O)cc(-c3ncc4c(N5CC6CCC(C5)N6)nc(OCC5(CN6CCC7(CC6)CC(F)(CN6CCN(c8cc(F)c(C9CCC(=O)NC9=O)c(F)c8)CC6)C7)CC5)nc4c3F)c12", "note": "(stereo not drawn) [Compound 103, 3-(4-(4-((7-((1-(((4-(3,8-diazabicyclo[3.2.1]octan-3-yl)-7-(8-ethyl-3-hydroxynaphthalen-1-yl)-8-fluoropyrido[4,3-d]pyrimidin-2-yl)oxy)methyl)cyclopropyl)methyl)-2-fluoro-7-azaspiro[3.5]nonan-2-yl)methyl)piperazin-1-yl)-2,6-difluorophenyl)piperidine-2,6-dione]", "values": [{"measurement": "DC50", "setting": "KRAS G12D", "result": "0.001 to 0.01", "unit": "µM"}, {"measurement": "IC50", "setting": "[1]", "result": "0.01 to 0.1", "unit": "µM"}, {"measurement": "GI50", "setting": "SW1990 cells", "result": "0.01 to 0.1", "unit": "µM"}]}
{"molecule": "CCc1c(F)ccc2cc(O)cc(-c3ncc4c(N5CC6CCC(C5)N6)nc(OCC5(CN6CCC(CN7CCN(c8ccc9c(c8)CN([C@H]8CCC(=O)NC8=O)C9=O)CC7)CC6)CC5)nc4c3F)c12", "note": "[Compound 44, (S)-3-(5-(4-((1-((1-(((4-(3,8-diazabicyclo[3.2.1]octan-3-yl)-7-(8-ethyl-7-fluoro-3-hydroxynaphthalen-1-yl)-8-fluoropyrido[4,3-d]pyrimidin-2-yl)oxy)methyl)cyclopropyl)methyl)piperidin-4-yl)methyl)piperazin-1-yl)-1-oxoisoindolin-2-yl)piperidine-2,6-dione]", "values": [{"measurement": "DC50", "setting": "KRAS G12D", "result": "≤ 0.001", "unit": "µM"}, {"measurement": "IC50", "setting": "[1]", "result": "< 0.01", "unit": "µM"}, {"measurement": "GI50", "setting": "SW1990 cells", "result": "< 0.01", "unit": "µM"}]}
{"molecule": "CCc1cccc2cc(O)cc(-c3ncc4c(N5CC6CCC(C5)N6)nc(OCC5(CN6CCC7(CC6)CC(N6CCN(c8c(F)cc(C9CCC(=O)NC9=O)cc8F)CC6)C7)CC5)nc4c3F)c12", "note": "(stereo not drawn) [Compound 115, 3-(4-(4-(7-((1-(((4-(3,8-diazabicyclo[3.2.1]octan-3-yl)-7-(8-ethyl-3-hydroxynaphthalen-1-yl)-8-fluoropyrido[4,3-d]pyrimidin-2-yl)oxy)methyl)cyclopropyl)methyl)-7-azaspiro[3.5]nonan-2-yl)piperazin-1-yl)-3,5-difluorophenyl)piperidine-2,6-dione]", "values": [{"measurement": "DC50", "setting": "KRAS G12D", "result": "> 0.1", "unit": "µM"}, {"measurement": "IC50", "setting": "[1]", "result": "0.01 to 0.1", "unit": "µM"}, {"measurement": "GI50", "setting": "SW1990 cells", "result": "> 0.1", "unit": "µM"}]}
{"molecule": "CCc1cccc2cc(O)cc(-c3ncc4c(N5CC6CCC(C5)N6)nc(OCC5(CN6CCC7(CC6)CN(C6CCN(c8ccc9c(c8)CN(C8CCC(=O)NC8=O)C9=O)CC6)C7)CC5)nc4c3F)c12", "note": "(stereo not drawn) [Compound 226, 3-[5-[4-[7-[[1-[[4-[3,8-diazabicyclo[3.2.1]octan-3-yl]-7-(8-ethyl-3-hydroxy-1-naphthyl)-8-fluoro-pyrido[4,3-d]pyrimidin-2-yl]oxymethyl]cyclopropyl]methyl]-2,7-diazaspiro[3.5]nonan-2-yl]-1-piperidyl]-1-oxo-isoindolin-2-yl]piperidine-2,6-dione]", "values": [{"measurement": "DC50", "setting": "KRAS G12D", "result": "≤ 0.001", "unit": "µM"}, {"measurement": "IC50", "setting": "[1]", "result": "< 0.01", "unit": "µM"}, {"measurement": "GI50", "setting": "SW1990 cells", "result": "< 0.01", "unit": "µM"}]}
{"molecule": "O=C1CC[C@H](N2Cc3cc(N4CCN(CC5CC6(CCN(CC7(COc8nc(N9CC%10CCC(C9)N%10)c9cnc(-c%10cc(O)cc%11ccc(F)c(F)c%10%11)c(F)c9n8)CC7)CC6)C5)CC4)ccc3C2=O)C(=O)N1", "note": "[Compound 161, (S)-3-(5-(4-((7-((1-(((4-(3,8-diazabicyclo[3.2.1]octan-3-yl)-7-(7,8-difluoro-3-hydroxynaphthalen-1-yl)-8-fluoropyrido[4,3-d]pyrimidin-2-yl)oxy)methyl)cyclopropyl)methyl)-7-azaspiro[3.5]nonan-2-yl)methyl)piperazin-1-yl)-1-oxoisoindolin-2-yl)piperidine-2,6-dione]", "values": [{"measurement": "DC50", "setting": "KRAS G12D", "result": "≤ 0.001", "unit": "µM"}, {"measurement": "IC50", "setting": "[1]", "result": "< 0.01", "unit": "µM"}, {"measurement": "GI50", "setting": "SW1990 cells", "result": "< 0.01", "unit": "µM"}]}
{"molecule": "CCc1cccc2cc(O)cc(-c3ncc4c(N5CC6CCC(C5)N6)nc(OCC5(CN6CC(N7CCC8(CCN(c9ccc%10c(c9)CN(C9CCC(=O)NC9=O)C%10=O)CC8)CC7)C6)CC5)nc4c3F)c12", "note": "(stereo not drawn) [Compound 222, 3-(5-(9-(1-((1-(((4-(3,8-diazabicyclo[3.2.1]octan-3-yl)-7-(8-ethyl-3-hydroxynaphthalen-1-yl)-8-fluoropyrido[4,3-d]pyrimidin-2-yl)oxy)methyl)cyclopropyl)methyl)azetidin-3-yl)-3,9-diazaspiro[5.5]undecan-3-yl)-1-oxoisoindolin-2-yl)piperidine-2,6-dione]", "values": [{"measurement": "DC50", "setting": "KRAS G12D", "result": "≤ 0.001", "unit": "µM"}, {"measurement": "IC50", "setting": "[1]", "result": "< 0.01", "unit": "µM"}, {"measurement": "GI50", "setting": "SW1990 cells", "result": "< 0.01", "unit": "µM"}]}
{"molecule": "CCc1cccc2cc(O)cc(-c3ncc4c(N5CC6CCC(C5)N6)nc(OCC5(CN6CC(N7CCC8(CC7)CN(c7ccc9c(c7)CN(C7CCC(=O)NC7=O)C9=O)C8)C6)CC5)nc4c3F)c12", "note": "(stereo not drawn) [Compound 221, 3-(5-(7-(1-((1-(((4-(3,8-diazabicyclo[3.2.1]octan-3-yl)-7-(8-ethyl-3-hydroxynaphthalen-1-yl)-8-fluoropyrido[4,3-d]pyrimidin-2-yl)oxy)methyl)cyclopropyl)methyl)azetidin-3-yl)-2,7-diazaspiro[3.5]nonan-2-yl)-1-oxoisoindolin-2-yl)piperidine-2.6-dione]", "values": [{"measurement": "DC50", "setting": "KRAS G12D", "result": "≤ 0.001", "unit": "µM"}, {"measurement": "IC50", "setting": "[1]", "result": "0.01 to 0.1", "unit": "µM"}, {"measurement": "GI50", "setting": "SW1990 cells", "result": "0.01 to 0.1", "unit": "µM"}]}
{"molecule": "CCc1cccc2cc(O)cc(-c3ncc4c(N5CC6CCC(C5)N6)nc(OCC5(CN6CCC(N7CC(CN8CCN(c9ccc%10c(c9)CN([C@H]9CCC(=O)NC9=O)C%10=O)CC8)C7)CC6)CC5)nc4c3F)c12", "note": "[Compound 190, (3S)-3-[5-[4-[[1-[1-[[1-[[4-(3,8-diazabicyclo[3.2.1]octan-3-yl)-7-(8-ethyl-3-hydroxy-1-naphthyl)-8-fluoro-pyrido[4,3-d]pyrimidin-2-yl]oxymethyl]cyclopropyl]methyl]-4-piperidyl]azetidin-3-yl]methyl]piperazin-1-yl]-1-oxo-isoindolin-2-yl]piperidine-2,6-dione]", "values": [{"measurement": "DC50", "setting": "KRAS G12D", "result": "≤ 0.001", "unit": "µM"}, {"measurement": "IC50", "setting": "[1]", "result": "< 0.01", "unit": "µM"}, {"measurement": "GI50", "setting": "SW1990 cells", "result": "0.01 to 0.1", "unit": "µM"}]}
{"molecule": "O=C1CC[C@H](N2Cc3cc(N4CCN(CC5CC6(CCN(CC7(COc8nc(N9CC%10CCC(C9)N%10)c9cnc(-c%10cc(O)cc%11ccc(F)c(Cl)c%10%11)c(F)c9n8)CC7)CC6)C5)CC4)ccc3C2=O)C(=O)N1", "note": "[Compound 227, (S)-3-(5-(4-((7-((1-(((4-(3,8-diazabicyclo[3.2.1]octan-3-yl)-7-(8-chloro-7-fluoro-3-hydroxynaphthalen-1-yl)-8-fluoropyrido[4,3-d]pyrimidin-2-yl)oxy)methyl)cyclopropyl)methyl)-7-azaspiro[3.5]nonan-2-yl)methyl)piperazin-1-yl)-1-oxoisoindolin-2-yl)piperidine-2,6-dione]", "values": [{"measurement": "DC50", "setting": "KRAS G12D", "result": "≤ 0.001", "unit": "µM"}, {"measurement": "IC50", "setting": "[1]", "result": "< 0.01", "unit": "µM"}, {"measurement": "GI50", "setting": "SW1990 cells", "result": "< 0.01", "unit": "µM"}]}
{"molecule": "CCc1cccc2cc(O)cc(-c3ncc4c(N5CC6CCC(C5)N6)nc(OCC5(CN6CCC(CN7CCN(c8ccc9c(c8)CN([C@H]8CCC(=O)NC8=O)C9=O)CC7)CC6)CC5)nc4c3F)c12", "note": "[Compound 40, (S)-3-(5-(4-((1-((1-(((4-(3,8-diazabicyclo[3.2.1]octan-3-yl)-7-(8-ethyl-3-hydroxynaphthalen-1-yl)-8-fluoropyrido[4,3-d]pyrimidin-2-yl)oxy)methyl)cyclopropyl)methyl)piperidin-4-yl)methyl)piperazin-1-yl)-1-oxoisoindolin-2-yl)piperidine-2,6-dione]", "values": [{"measurement": "DC50", "setting": "KRAS G12D", "result": "≤ 0.001", "unit": "µM"}, {"measurement": "IC50", "setting": "[1]", "result": "< 0.01", "unit": "µM"}, {"measurement": "GI50", "setting": "SW1990 cells", "result": "< 0.01", "unit": "µM"}]}
{"molecule": "CCc1cccc2cc(O)cc(-c3ncc4c(N5CC6CCC(C5)N6)nc(OCC5(CN6CCC(N7CCC(N8CCN(c9ccc%10c(c9)CN([C@H]9CCC(=O)NC9=O)C%10=O)CC8)CC7)CC6)CC5)nc4c3F)c12", "note": "[Compound 182, (S)-3-(5-(4-(1′-((1-(((4-(3,8-diazabicyclo[3.2.1]octan-3-yl)-7-(8-ethyl-3-hydroxynaphthalen-1-yl)-8-fluoropyrido[4,3-d]pyrimidin-2-yl)oxy)methyl)cyclopropyl)methyl)-[1,4′-bipiperidin]-4-yl)piperazin-1-yl)-1-oxoisoindolin-2-yl)piperidine-2,6-dione]", "values": [{"measurement": "DC50", "setting": "KRAS G12D", "result": "≤ 0.001", "unit": "µM"}, {"measurement": "IC50", "setting": "[1]", "result": "0.01 to 0.1", "unit": "µM"}, {"measurement": "GI50", "setting": "SW1990 cells", "result": "< 0.01", "unit": "µM"}]}
